Substitutions are numbered along the chain they refer to. Numbers in names are those of the source. Structures can show the parent of a compound that is named as a salt. Where two headings read alike, the source gives them in different places.
Tests used:
[1] = system: BDNF-induced nuclear Arc expression in primary cortical neurons; experiment: Chemogenomic screen: high-content image-based assay of BDNF-induced nuclear Arc expression (96-well); type: cell-based, mouse
In short: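 Nuclear Arc immunofluorescence is quantified automatically within an acetyl-H3K9-defined nuclear mask from ×40 images. Cultures are DIV13 mouse forebrain cortical neurons seeded at 30,000 per well and exposed to BDNF plus compound at a final 16.7 µM, with triplicate biological replicates.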

[2] = system: Neuro2a cells; conditions: for Fold-change to WT: protein half-life in Neuro2a
Text: Next, we aimed to determine whether the K24, K33, K55, and K70 residues participate in Arc protein turnover. […] We also included K70 in this experiment because of its position in the coiled-coil and nuclear retention domains of Arc (Fig. 5e) as well as its relative proximity to K55. For this test, we used site-directed mutagenesis to generate plasmids that would allow overexpression of an acetyl-mimic/unmodifiable mutant Arc-Myc-FLAG protein (lysine (K) to glutamine (Q) mutant) for each of these four sites. After transfecting sets of Neuro2a cells with these different constructs, we inhibited translation with CHX and monitored overexpressed protein levels for up to 6 h after.
Lysates were collected at the indicated time points and Arc-Myc-FLAG protein level analyzed in every sample by western blotting with an anti-FLAG antibody. Representative western blots are presented on top and quantification of data normalized to corresponding β-actin and presented as percentage of Arc-Myc-FLAG level (±SEM) at the initial time point after CHX application (t = 0). Curve represents exponential decay fit. b Estimate of protein half-life Arc for WT Arc-Myc-FLAG and each acetyl-mimic mutant is presented in table. c WT and acetyl-mutant Arc-Myc-FLAG polyubiquitination was determined in lysates from overexpressing Neuro2a cells. Lysates were immunoprecipitated with anti-FLAG and western blotted with anti-Ub or anti-Arc as indicated.
Neuro2A cells were cultured in DMEM (supplemented with 10% fetal bovine serum (Gemini-Bio-Products, West Sacramento, CA), penicillin (50 units ml^−1), and streptomycin (50 µg ml^−1)) and transfected overnight using Lipofectamine 2000 (Invitrogen) according to the manufacturer’s protocol. The Neuro2A cell line was generously shared by Dr. Grace Gill.
The pCMV6-Arc-Myc-DDK (FLAG) plasmid (MR206218) was purchased from OriGene Biotechnologies (Rockville, MD). The Arc-Myc-FLAG K24Q, K24R, K33Q, K55Q, K70Q, and K70R plasmids were generated with the help of the Q5 Site-Directed Mutagenesis Kit from New England BioLabs (Ipswich, MA) using WT pCMV6-Arc-Myc-FLAG as template. All constructs were verified by DNA sequencing.

[3] = nuclear Arc-positive cells relative to DMSO + BDNF control, negative values = decrease
[4] = chemogenomic (SMART) screen, BDNF-induced nuclear Arc expression, primary cortical neurons, BDNF control 19.5
[5] = BDNF-induced nuclear Arc expression, primary cortical neurons, chemogenomic screen
[6] = nuclear Arc-positive cells relative to DMSO control (BDNF), negative = decrease

## Cc1[nH]c2ccc(Cl)cc2c1C1=CCNCC1 [EMD-386,088]
[1]
  Percentage of cell with nuclear Arc immunostaining above 2σ threshold: 22.7%
[1]; [3]
  Fold-change — Normalized to DMSO control (BDNF): 1.2 fold

## COc1cc2c(cc1OC)C1CC(=O)C(CC(C)C)CN1CC2 (stereo not drawn) [Tetrabenazine]
[1]; [4]
  Percentage of cell with nuclear Arc immunostaining above 2σ threshold: 24.9%
[1]; [3]
  Fold-change — Normalized to DMSO control (BDNF): 1.3 fold

## NC(=O)CN1CCCC1=O [Piracetam]
[1]; [5]
  Percentage of cell with nuclear Arc immunostaining above 2σ threshold: 10.5%

## COc1ccc2cccc(CCNC(C)=O)c2c1 [Agomelatine]
[1]; [4]
  Percentage of cell with nuclear Arc immunostaining above 2σ threshold: 17.6%

## NC12CC3CC(CC(C3)C1)C2 [Amantadine]
[1]; [4]
  Percentage of cell with nuclear Arc immunostaining above 2σ threshold: 32.9%
[1]; [3]
  Fold-change — Normalized to DMSO control (BDNF): 1.7 fold

## OC(CCN1CCCCC1)(c1ccccc1)C1CC2C=CC1C2 (stereo not drawn) [Biperiden]
[1]; [4]
  Percentage of cell with nuclear Arc immunostaining above 2σ threshold: 13.3%

## CN(CCOc1ccc(CC2SC(=O)NC2=O)cc1)c1ccccn1 (stereo not drawn) [Rosiglitazone]
[1]; [4]
  Percentage of cell with nuclear Arc immunostaining above 2σ threshold: 29.8%
[1]; [3]
  Fold-change — Normalized to DMSO control (BDNF): 1.5 fold

## CN1CCN(C2=Nc3ccccc3Oc3ccc(Cl)cc32)CC1 [Loxapine]
[1]; [4]
  Percentage of cell with nuclear Arc immunostaining above 2σ threshold: 21.2%
[1]; [3]
  Fold-change — Normalized to DMSO control (BDNF): 1.1 fold

## C[C@H](NC[C@H](O)CP(=O)(O)Cc1ccccc1)c1ccc(Cl)c(Cl)c1 [CGP 55845]
[1]
  Percentage of cell with nuclear Arc immunostaining above 2σ threshold: 24.6%
[1]; [3]
  Fold-change — Normalized to DMSO control (BDNF): 1.3 fold

## CN(C)CCC[C@@]1(c2ccc(F)cc2)OCc2cc(C#N)ccc21 [Escitalopram oxalate]
[1]; [4]
  Percentage of cell with nuclear Arc immunostaining above 2σ threshold: 26.3%
[1]; [3]
  Fold-change — Normalized to DMSO control (BDNF): 1.4 fold

## Clc1ccc(C23CNCC2C3)cc1Cl (stereo not drawn) [DOV-216,303]
[1]
  Percentage of cell with nuclear Arc immunostaining above 2σ threshold: 6.5%
[1]; [6]
  Fold-change — Normalized to DMSO control (BDNF): -3.0 fold

## O=C(c1ccc2c(c1)OCCO2)N1CCCCC1 [CX-546]
[1]
  Percentage of cell with nuclear Arc immunostaining above 2σ threshold: 6.5%
[1]; [6]
  Fold-change — Normalized to DMSO control (BDNF): -3.0 fold

## CNC1CC(c2ccc(Cl)c(Cl)c2)c2ccccc21 (stereo not drawn) [Indatraline]
[1]
  Percentage of cell with nuclear Arc immunostaining above 2σ threshold: 0.0%

## Nc1c2c(nc3ccccc13)CCCC2 [Tacrine]
[1]; [5]
  Percentage of cell with nuclear Arc immunostaining above 2σ threshold: 8.3%

## CN(C)CC/C=C1\c2ccccc2CSc2ccccc21 [Dosulepin]
[1]; [4]
  Percentage of cell with nuclear Arc immunostaining above 2σ threshold: 16.7%

## CN1[C@H]2C[C@H](OC(=O)[C@H](CO)c3ccccc3)C[C@@H]1[C@@H](O)C2 [Anisodamine]
[1]
  Percentage of cell with nuclear Arc immunostaining above 2σ threshold: 25.5%
[1]; [3]
  Fold-change — Normalized to DMSO control (BDNF): 1.3 fold

## CC(C)(N)C(=O)N[C@H](COCc1ccccc1)C(=O)N1CCC2(CC1)CN(S(C)(=O)=O)c1ccccc12 [Ibutamoren]
[1]; [5]
  Percentage of cell with nuclear Arc immunostaining above 2σ threshold: 7.1%

## OC(CNc1ccccc1)Cn1c2ccc(Br)cc2c2cc(Br)ccc21 (stereo not drawn) [P7C3]
[1]
  Percentage of cell with nuclear Arc immunostaining above 2σ threshold: 1.7%
[1]; [6]
  Fold-change — Normalized to DMSO control (BDNF): -11.2 fold

## CCC1(C)CC(=O)NC1=O (stereo not drawn) [Ethosuximide]
[1]; [4]
  Percentage of cell with nuclear Arc immunostaining above 2σ threshold: 21.8%
[1]; [3]
  Fold-change — Normalized to DMSO control (BDNF): 1.1 fold

## N=C(N)NC(=O)Cc1c(Cl)cccc1Cl [Guanfacine hydrochloride]
[1]; [4]
  Percentage of cell with nuclear Arc immunostaining above 2σ threshold: 20.9%
[1]; [3]
  Fold-change — Normalized to DMSO control (BDNF): 1.1 fold

## CN(C)CCCOc1nn(Cc2ccccc2)c2ccccc12 [Benzydamine]
[1]; [4]
  Percentage of cell with nuclear Arc immunostaining above 2σ threshold: 25.2%
[1]; [3]
  Fold-change — Normalized to DMSO control (BDNF): 1.3 fold

## COc1ccc2c(c1)[C@]13CCCC[C@@H]1[C@H](C2)N(C)CC3 [Dextromethorphan]
[1]; [4]
  Percentage of cell with nuclear Arc immunostaining above 2σ threshold: 19.7%
[1]; [3]
  Fold-change — Normalized to DMSO control (BDNF): 1.0 fold

## Cc1nccc2c1[nH]c1ccccc12 [Harmane]
[1]
  Percentage of cell with nuclear Arc immunostaining above 2σ threshold: 38.8%
[1]; [3]
  Fold-change — Normalized to DMSO control (BDNF): 2.0 fold

B1: WT: wild-type mouse Arc-Myc-FLAG protein overexpressed in Neuro2a cells (protein, UniProt Q9WV31 1-396, looked up)
Activity-regulated …: MELDHMTTGGLHAYPAPRGGPAAKPNVILQIGKCRAEMLEHVRRTHRHLLTEVSKQVERELKGLHRSVGKLENNLDGYVPTGDSQRWKKSIKACLCRCQETIANLERWVKREMHVWREVFYRLERWADRLESMGGKYPVGSEPARHTVSVGVGGPEPYCQEADGYDYTVSPYAITPPPAAGELPEQESVEAQQYQSWGPGEDGQPSPGVDTQIFEDPREFLSHLEEYLRQVGGSEEYWLSQIQNHMNGPAKKWWEFKQGSVKNWVEFKKEFLQYSEGTLSREAIQRELELPQKQGEPLDQFLWRKRDLYQTLYVDAEEEEIIQYVVGTLQPKLKRFLRHPLPKTLEQLIQRGMEVQDGLEQAAEPSGTPLPTEDETEALTPALTSESVASDRTQPE
modifications: Myc-FLAG tag
[2]
  Estimated t½: 2.77 h
  Fold-change to WT: 1.00

B2: K33Q: acetyl-mimic/unmodifiable mutant Arc-Myc-FLAG, lysine 33 to glutamine (protein, UniProt Q9WV31 1-396, looked up, variant K33Q)
Activity-regulated …: B1 Activity-regulated … with K33Q
modifications: Myc-FLAG tag
notes: acetyl-mimic/unmodifiable mutant Arc-Myc-FLAG, lysine 33 to glutamine
[2]
  Estimated t½: 2.63 h
  Fold-change to WT: −1.05

B3: K55Q: acetyl-mimic/unmodifiable mutant Arc-Myc-FLAG, lysine 55 to glutamine (protein, UniProt Q9WV31 1-396, looked up, variant K55Q)
Activity-regulated …: B1 Activity-regulated … with K55Q
modifications: Myc-FLAG tag
notes: acetyl-mimic/unmodifiable mutant Arc-Myc-FLAG, lysine 55 to glutamine
[2]
  Estimated t½: 2.40 h
  Fold-change to WT: −1.15

Reference: PMC5698418 (Nature Communications, 2017)
